From patent US20170020890A1, “PHARMACEUTICAL COMPOSITION COMPRISING FATTY ACID DERIVATIVE” (SUCAMPO AG, priority 2015, published 2017)
Peptide text beside a SMILES is read from it.

Experiment: Solubility of sweetening agents in medium-chain triglycerides (MCT)
Conditions: not given
Experimental: 18 mg of neotame, 20 mg of saccharin, 1 mg of sodium saccharin or 5 mg of thaumatin was mixed with medium-chain triglycerides (MCT; USP/NF) to give the total weight of 180 g, 20 g, 100 g or 500 g respectively.
Solubility and sensory tests of sweetening agents were conducted. Specifically, 7.2 mg of neotame, 20 mg of saccharin or 5 mg of sucralose was mixed with medium-chain triglycerides (MCT; USP/NF) to give the total weight of 40 g, 20 g or 100 g, respectively. Additionally, 1 mg of a sweetening agent was mixed with medium-chain triglycerides (MCT; USP/NF) to give the total weight of its mixtures of 100 g. The sweetening agent was sodium saccharin, thaumatin, aspartame, acesulfame potassium, sucrose, glucose, fructose, lactose, D-sorbitol, or xylitol.

Row | Compound | Solubility in MCT | Solubility in MCT, in words | Solubility to MCT
1 | thaumatin | <0.001 w/w % | did not solve in MCT | <0.001%
2 | CC1=CC(=O)NS(=O)(=O)O1 [Acesulfame potassium, acesulfame potassium] | <0.001 w/w % |  | 
3 | OC[C@@H](O)[C@@H](O)[C@H](O)[C@@H](O)CO [D-Sorbitol, D-sorbitol] | <0.001 w/w % |  | 
4 | COC(=O)[C@H](Cc1ccccc1)NC(=O)[C@@H](N)CC(=O)O [Aspartame, aspartame] (H-Asp-Phe-OMe) | <0.001 w/w % |  | 

Results, then the compound that gave them:

Row | Solubility in MCT | Solubility in MCT, in words | Solubility to MCT | Compound
5 | 0.018 w/w % | solved in MCT | 0.01% | COC(=O)[C@H](Cc1ccccc1)NC(=O)[C@H](CC(=O)O)NCCC(C)(C)C [Neotame]
6 | <0.001 w/w % |  |  | OC[C@H]1O[C@@](CO)(O[C@H]2O[C@H](CO)[C@@H](O)[C@H](O)[C@H]2O)[C@@H](O)[C@@H]1O [Sucrose, sucrose]
7 | 0.1 w/w % | solved in MCT | 0.1% | O=C1NS(=O)(=O)c2ccccc21 [Saccharin, 2H-1λ^6,2-benzothiazol-1,1,3-trione]
8 | 0.005 w/w % | solved in MCT |  | OC[C@H]1O[C@H](O[C@]2(CCl)O[C@H](CCl)[C@@H](O)[C@@H]2O)[C@H](O)[C@@H](O)[C@H]1Cl [Sucralose, 1,6-Dichloro-1,6-dideoxy-β-D-fructofuranosyl-4-chloro-4-deoxy-α-D-galactopyranoside]
9 | <0.001 w/w % |  |  | OC[C@@H](O)[C@H](O)[C@@H](O)CO [Xylitol, xylitol]

Same assay, conditions: Example 1; medium-chain triglycerides (USP/NF)

Row | Compound | Solubility to MCT
10 | O=C1NS(=O)(=O)c2ccccc21.[Na] [Sodium saccharin, sodium saccharin] | <0.001%

Same assay, conditions: Example 5; medium-chain triglycerides (USP/NF)

Row | Compound | Solubility in MCT
11 | O=C1NS(=O)(=O)c2ccccc21.[Na] [Sodium saccharin, sodium saccharin] | <0.001 w/w %
12 | O=C(CO)[C@@H](O)[C@H](O)[C@H](O)CO [Fructose, fructose] | <0.001 w/w %

Same assay, conditions: Examples 1 and 5

Row | Compound | Solubility in MCT, in words
13 | O=C1NS(=O)(=O)c2ccccc21.[Na] [Sodium saccharin, sodium saccharin] | did not solve in MCT
